Structures are written as SMILES.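 Compound exposure: 48 hours, 5 concentrations, 96-well plates. The concentration for 50% growth inhibition is given as GI50. The concentration for full growth arrest is given as TGI.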

Ten compounds from PubChem BioAssay (NCI) can be followed below.

Some test systems named below: SR leukemia; DU-145 prostate; SK-OV-3 ovarian; SNB-75 CNS; SF-295 CNS; OVCAR-5 ovarian; HCT-15 colon; HCC-2998 colon; LOX IMVI melanoma; A498 renal.
What all share (assay): growth of human tumour cells (NCI), 48 h

In the case of `CCOC(=O)c1c2c(n3ccc(NC(=O)CCN4CCCC4)cc13)C(=O)c1ncccc1C2=O`, the TGI with SR leukemia turned out to be 1.39 µM; with DU-145 prostate, 2.96 µM; in the assay with SK-OV-3 ovarian, 23.5 µM; with SNB-75 CNS, 2.41 µM; in the assay on SF-295 CNS, 2.67 µM; in the assay on OVCAR-5 ovarian, 3.42 µM. The GI50 in the assay on DU-145 prostate was 1.46 µM; in the assay on SK-OV-3 ovarian, 2.22 µM; in the assay on SNB-75 CNS, 1.05 µM; in the assay on SF-295 CNS, 1.1 µM; in the assay with OVCAR-5 ovarian, 1.57 µM.
For `COc1nc(N(C)O)nc(N(C)O)n1`, the GI50 with HCT-15 colon was 0.519 µM; with SR leukemia, 0.391 µM; in the assay with HCC-2998 colon it was 2.25 µM; with DU-145 prostate it was 0.858 µM; in the assay on LOX IMVI melanoma, 0.895 µM; in the assay with SK-OV-3 ovarian, 1.75 µM. The GI50 with A498 renal is 7.19 µM; with SNB-75 CNS, 10 µM; in the assay on SF-295 CNS it was 2.2 µM. Moreover, the TGI is > 100 µM with HCT-15 colon; 4.35 µM in the assay on SR leukemia; > 100 µM with HCC-2998 colon; > 100 µM in the assay on DU-145 prostate; > 100 µM in the assay on LOX IMVI melanoma; > 100 µM in the assay with SK-OV-3 ovarian. In addition, the TGI in the assay on A498 renal was 80.5 µM; with SNB-75 CNS, > 100 µM; in the assay on SF-295 CNS, 9.69 µM.
Take `COc1ccc2cc(C(=O)/C=C/c3cc(OC)c(OC)c(OC)c3)ccc2c1`: the GI50 in the assay on HCT-15 colon is 1.77 µM; with SR leukemia, 1.32 µM; in the assay with DU-145 prostate, 2.06 µM; in the assay with LOX IMVI melanoma, 2.55 µM; with SK-OV-3 ovarian, 12.5 µM; in the assay on SNB-75 CNS, 11.8 µM. The GI50 in the assay on SF-295 CNS was 13 µM. The TGI in the assay on HCT-15 colon was > 50 µM; in the assay with SR leukemia, > 50 µM; in the assay on DU-145 prostate, 11.2 µM; in the assay on LOX IMVI melanoma, 11 µM; in the assay on SK-OV-3 ovarian, 46.4 µM; with SNB-75 CNS, 39.3 µM. Also, in the assay with SF-295 CNS, the TGI was > 50 µM.
Take `O=C1NCc2ccc3c(-c4cccc(Cl)c4)c[nH]c3c21`: the GI50 with HCT-15 colon is 0.163 µM; in the assay with SR leukemia, 0.0849 µM; in the assay on HCC-2998 colon it was 0.734 µM; with DU-145 prostate, 0.279 µM; in the assay with LOX IMVI melanoma, 0.279 µM; in the assay with SK-OV-3 ovarian it was 0.339 µM. For the same compound, the GI50 in the assay with A498 renal is 0.058 µM; in the assay on SF-295 CNS, 0.199 µM; in the assay with OVCAR-5 ovarian, 1.62 µM. The TGI in the assay on HCT-15 colon was > 50 µM; in the assay with SR leukemia, > 50 µM; in the assay with HCC-2998 colon, > 22.9 µM; in the assay with DU-145 prostate, > 50 µM; with LOX IMVI melanoma it was > 50 µM; with SK-OV-3 ovarian it was > 50 µM. Moreover, the results for the TGI with A498 renal, in the assay with SF-295 CNS and in the assay on OVCAR-5 ovarian were 0.671 µM, > 50 µM and > 50 µM, respectively.
In the case of `O=c1oc2cc(OS(=O)(=O)c3ccc(F)cc3)ccc2c2c1CCCCC2`, the GI50 in the assay with SR leukemia, in the assay with HCC-2998 colon, in the assay on DU-145 prostate, in the assay with LOX IMVI melanoma, in the assay with SK-OV-3 ovarian and in the assay with A498 renal was > 100 µM each time. For the same compound, the GI50 was 19.6 µM in the assay on SNB-75 CNS, > 100 µM in the assay with SF-295 CNS and > 100 µM in the assay with OVCAR-5 ovarian. Besides, the TGI in the assay on SR leukemia, with HCC-2998 colon, in the assay on DU-145 prostate, in the assay with LOX IMVI melanoma, in the assay with SK-OV-3 ovarian and with A498 renal was > 100 µM each time. Further, the TGI with SNB-75 CNS, in the assay on SF-295 CNS and in the assay with OVCAR-5 ovarian was > 100 µM throughout.
Regarding `N#Cc1c(-c2nc3ccccc3s2)c(=O)oc2cc(O)ccc12`, the TGI with HCT-15 colon, in the assay with SR leukemia, with HCC-2998 colon, in the assay with DU-145 prostate, in the assay with LOX IMVI melanoma and in the assay with A498 renal was > 100 µM in each case. Also, the TGI in the assay on SNB-75 CNS, with SF-295 CNS and in the assay with OVCAR-5 ovarian was > 100 µM each time.
Consider `COc1ccc(N=C2CSc3nnc(-c4cc(F)c(Cl)cc4Cl)n3N2)cc1`, for which the GI50 was 1.03 µM in the assay on HCT-15 colon; 0.33 µM in the assay with SR leukemia; 1.47 µM in the assay with DU-145 prostate; 0.897 µM with LOX IMVI melanoma; 0.987 µM with SK-OV-3 ovarian; 1.54 µM with A498 renal. Also, the figures for the GI50 in the assay with SNB-75 CNS, in the assay with SF-295 CNS and in the assay on OVCAR-5 ovarian were 0.355 µM, 0.347 µM and 1.9 µM, respectively. Besides, the TGI came to 17.2 µM in the assay with HCT-15 colon; 0.799 µM with SR leukemia; 3.87 µM in the assay on DU-145 prostate; 11.1 µM in the assay with LOX IMVI melanoma; 5.39 µM in the assay on SK-OV-3 ovarian; 13 µM in the assay with A498 renal. Moreover, the TGI in the assay with SNB-75 CNS is 1.58 µM; in the assay on SF-295 CNS it was 2.08 µM; in the assay with OVCAR-5 ovarian it was 4.57 µM.
Regarding `N#CCC1COc2ccccc2O1` (stereo not drawn), the TGI in the assay on HCT-15 colon, in the assay with SR leukemia, in the assay with HCC-2998 colon, in the assay with DU-145 prostate, with LOX IMVI melanoma and with SK-OV-3 ovarian was > 10 µM in each case. Besides, the TGI in the assay on SNB-75 CNS, in the assay on SF-295 CNS and in the assay on OVCAR-5 ovarian was > 10 µM in each case.
As for `Cc1c2c(nn1-c1ccc(S(=O)(=O)NC(=S)Nc3ccccc3)cc1)-c1ccccc1CC2`, the GI50 is 38.8 µM in the assay with HCT-15 colon; > 50 µM in the assay with SR leukemia; > 50 µM in the assay on DU-145 prostate; 25.8 µM with LOX IMVI melanoma; > 50 µM in the assay on SK-OV-3 ovarian; > 50 µM in the assay on SNB-75 CNS. Also, the GI50 in the assay with SF-295 CNS and in the assay on OVCAR-5 ovarian was > 50 µM throughout. In addition, the TGI in the assay with HCT-15 colon, in the assay on SR leukemia, in the assay on DU-145 prostate, in the assay on LOX IMVI melanoma, in the assay on SK-OV-3 ovarian and in the assay on SNB-75 CNS was > 50 µM each time. For the same compound, the TGI in the assay on SF-295 CNS and with OVCAR-5 ovarian was > 50 µM each time.
On to `COc1cc2c3c(n(C)c(=O)c2cc1OC)-c1cc2c(cc1/C3=C\CCCCCN)OCO2`, for which the GI50 with HCT-15 colon is 1.58 µM; with SR leukemia it was < 0.01 µM; in the assay with HCC-2998 colon, 1.28 µM; in the assay on DU-145 prostate it was 1.88 µM; in the assay on SK-OV-3 ovarian, 8.62 µM; in the assay with A498 renal it was 10.6 µM. Further, the figures for the GI50 in the assay on SNB-75 CNS, in the assay with SF-295 CNS and in the assay with OVCAR-5 ovarian were 19.5 µM, 0.887 µM and 8.66 µM, respectively. For the same compound, the TGI in the assay with HCT-15 colon is 12.7 µM; with HCC-2998 colon it was 39.5 µM; in the assay with DU-145 prostate it was 23.1 µM; in the assay on SK-OV-3 ovarian it was 44.7 µM; with A498 renal, 39.4 µM; in the assay with SNB-75 CNS, > 100 µM. The TGI with SF-295 CNS is > 42.4 µM; in the assay with OVCAR-5 ovarian it was > 52.9 µM.
